Reference: patent US11167059B2, “Compositions with reactive ingredients, and wound dressings, apparatuses, and methods” (KCI Licensing, Inc., priority 2010, dated 2021)

Legend:
Type in all cases: cell-based
MRSA = experiment: zone of inhibition (ZOI), foam discs saturated with solution, MRSA; settings: 8 mm foam disc saturated with solution
Method: (§1) Referring now to FIG. 17, the experiments described above for FIG. 14 were also performed with additional foams, one foam in which 1 gram of Calcium hypochlorite salt was infused (D100, shown as left column for each cycle), and one foam in which 2 grams of Calcium hypochlorite salt was dispersed (D200, shown as right column for each cycle). […] As discussed additionally below, the minimum concentration is significant because testing identified concentrations of hypochlorite-ion as low as 0.5-0.7 mM to have effective antibacterial and antimicrobial properties. Additional testing was performed to measure the zone of inhibition (ZOI) and Log Reduction of microbes for various samples of released aqueous solutions having various concentrations of hypochlorite ion, as listed in Tables 2 and 3. Table 2 lists ZOI and Log reduction data for a single cycle measured at hold times (exposure duration) of 30 seconds and 5 minutes of bacterial exposure to solution. Table 3 lists ZOI and Log reduction data for multiple cycles (each cycle including introduction of hypochlorite solution, and removal of solution prior to beginning next cycle). In the ZOI experimentation, foam discs having a diameter of 8 millimeters (mm) and a height of 5 mm were each saturated with hypochlorite-ion solution as indicated. Table 3 also lists the initial microbe count in log form (10^X, where X is listed in Table 2), log reduction in microbe count, and ZOI in mm. For the data of Table 3, the initial concentration (1×) of hypochlorite ion in solution was 5.7 mM of hypochlorite ion, which corresponds to 0.041% w/v of Ca(OCl)^2. In the Log reduction experimentation, the microbes were exposed to the respective concentration of solution for 30 seconds per cycle. […] The bold entries in Table 3 are indicative of substantially all microbes being killed. In the biofilm eradication cycles listed in Table 6 below, probes were cultured with microbes and incubated to permit formation of a biofilm on the probe. The probe was then exposed to solutions having various concentrations of Calcium hypochlorite solution for multiple cycles, with each cycle including exposure of the probe to solution for a duration of 5 minutes.

[1] = test system: Pseudomonas aeruginosa ATCC 27853; experiment: Minimum Bactericidal Concentration (MBC), P. aeruginosa; settings: % w/v Ca(OCl)2 in water
Method: as §1, with “The probe was then exposed to solutions having various concentrations of Calcium hypochlorite solution for multiple cycles, with each cycle including exposure of the probe to solution for a duration of 5 minutes.” left out

[2] = test system: Staphylococcus aureus ATCC 10832; experiment: Minimum Bactericidal Concentration (MBC), S. aureus ATCC 10832; settings: % w/v Ca(OCl)2 in water
Method: as §1, with “The probe was then exposed to solutions having various concentrations of Calcium hypochlorite solution for multiple cycles, with each cycle including exposure of the probe to solution for a duration of 5 minutes.” left out

[3] = test system: Staphylococcus aureus USA 400 (MRSA); experiment: Minimum Biofilm Eradication Concentration (MBEC), S. aureus USA 400 (MRSA); settings: Staphylococcus aureus USA 400 (MRSA) biofilm on probe, 5 minutes per cycle, % w/v Ca(OCl)2
Method: as §1, with “The probe was then exposed to solutions having various concentrations of Calcium hypochlorite solution for multiple cycles, with each cycle including exposure of the probe to solution for a duration of 5 minutes.” left out

[4] = test system: Staphylococcus aureus ATCC 10832; experiment: Minimum Inhibitory Concentration (MIC), S. aureus ATCC 10832; settings: % w/v Ca(OCl)2 in water
[5] = test system: Staphylococcus aureus ATCC 10832; experiment: Minimum Biofilm Eradication Concentration (MBEC), S. aureus ATCC 10832; settings: Staphylococcus aureus ATCC 10832 biofilm on probe, 5 minutes per cycle, % w/v Ca(OCl)2
Method: as §1, with “The probe was then exposed to solutions having various concentrations of Calcium hypochlorite solution for multiple cycles, with each cycle including exposure of the probe to solution for a duration of 5 minutes.” left out

[6] = test system: Pseudomonas aeruginosa ATCC 27853; experiment: Log reduction, multiple cycles, P. aeruginosa; settings: 30 seconds per cycle
Method: as §1

C. alb. [7] = experiment: Log reduction, single cycle, C. alb.; settings: for ΔLog - C. alb. 30 sec.: 30 sec. exposure; for ΔLog - C. alb. 5 min.: 5 min. exposure
Method: as §1

microbes = experiment: antibacterial and antimicrobial testing of hypochlorite-ion concentrations (summary statements)
Method: Referring now to FIG. 17, the experiments described above for FIG. 14 were also performed with additional foams, one foam in which 1 gram of Calcium hypochlorite salt was infused (D100, shown as left column for each cycle), and one foam in which 2 grams of Calcium hypochlorite salt was dispersed (D200, shown as right column for each cycle). […] As discussed additionally below, the minimum concentration is significant because testing identified concentrations of hypochlorite-ion as low as 0.5-0.7 mM to have effective antibacterial and antimicrobial properties. Additional testing was performed to measure the zone of inhibition (ZOI) and Log Reduction of microbes for various samples of released aqueous solutions having various concentrations of hypochlorite ion, as listed in Tables 2 and 3. Table 2 lists ZOI and Log reduction data for a single cycle measured at hold times (exposure duration) of 30 seconds and 5 minutes of bacterial exposure to solution. Table 3 lists ZOI and Log reduction data for multiple cycles (each cycle including introduction of hypochlorite solution, and removal of solution prior to beginning next cycle). In the ZOI experimentation, foam discs having a diameter of 8 millimeters (mm) and a height of 5 mm were each saturated with hypochlorite-ion solution as indicated. […]

[8] = test system: Pseudomonas aeruginosa ATCC 27853; experiment: Minimum Inhibitory Concentration (MIC), P. aeruginosa; settings: % w/v Ca(OCl)2 in water
C. alb. [9] = experiment: zone of inhibition (ZOI), foam discs saturated with solution, C. alb.; settings: 8 mm foam disc saturated with solution
Method: as §1

[10] = test system: Pseudomonas aeruginosa ATCC 27853; experiment: Minimum Biofilm Eradication Concentration (MBEC), P. aeruginosa; settings: Pseudomonas aeruginosa ATCC 27853 biofilm on probe, 5 minutes per cycle, % w/v Ca(OCl)2
Method: as §1, with “The probe was then exposed to solutions having various concentrations of Calcium hypochlorite solution for multiple cycles, with each cycle including exposure of the probe to solution for a duration of 5 minutes.” left out

[11] = test system: Staphylococcus aureus USA 400 (MRSA); experiment: Minimum Inhibitory Concentration (MIC), S. aureus USA 400 (MRSA); settings: % w/v Ca(OCl)2 in water
[12] = Sample Dilution 1x (5.7 mM hypochlorite ion, 0.041% w/v Ca(OCl)2)
[13] = Sample Dilution 2x of 5.7 mM hypochlorite ion
[14] = Sample Dilution 4x of 5.7 mM hypochlorite ion
[15] = Sample Dilution 8x of 5.7 mM hypochlorite ion (lowest concentration, 0.7 mM)

hypochlorite ion [OCl^− Solutions]
ZOI, D in mm MRSA (MRSA; 0.8 mM HOCl/OCl−): 0.0 mm | ZOI, D in mm MRSA (MRSA; 1.9 mM HOCl/OCl−): 0.0 mm | ZOI, D in mm MRSA (MRSA; 3.1 mM HOCl/OCl−): 0.0 mm | ZOI, D in mm MRSA (MRSA; 4.0 mM HOCl/OCl−): 0.0 mm | ZOI, D in mm MRSA (MRSA; 10.7 mM HOCl/OCl−): 13.0 mm | ZOI, D in mm MRSA (MRSA; 15.7 mM HOCl/OCl−): 13.0 mm | Minimum Bactericidal Concentration (MBC) 1 Cycle ([1]; 1 Cycle): <0.005% w/v | Minimum Bactericidal Concentration (MBC) 3 Cycles ([1]; 3 Cycles): <0.005% w/v | Minimum Bactericidal Concentration (MBC) 5 Cycles ([1]; 5 Cycles): <0.005% w/v | Minimum Bactericidal Concentration (MBC) 1 Cycle ([2]; 1 Cycle): <0.005% w/v | Minimum Bactericidal Concentration (MBC) 3 Cycles ([2]; 3 Cycles): <0.005% w/v | Minimum Bactericidal Concentration (MBC) 5 Cycles ([2]; 5 Cycles): <0.005% w/v | Minimum Biofilm Eradication Concentration (MBEC) 1 Cycle ([3]; 1 Cycle): <0.005% w/v | Minimum Biofilm Eradication Concentration (MBEC) 3 Cycles ([3]; 3 Cycles): <0.005% w/v | Minimum Biofilm Eradication Concentration (MBEC) 5 Cycles ([3]; 5 Cycles): <0.005% w/v | Minimum Inhibitory Concentration (MIC) 1 Cycle ([4]; 1 Cycle): <0.005% w/v | Minimum Inhibitory Concentration (MIC) 3 Cycles ([4]; 3 Cycles): <0.005% w/v | Minimum Inhibitory Concentration (MIC) 5 Cycles ([4]; 5 Cycles): <0.005% w/v | Minimum Biofilm Eradication Concentration (MBEC) 1 Cycle ([5]; 1 Cycle): <0.005% w/v | Minimum Biofilm Eradication Concentration (MBEC) 3 Cycles ([5]; 3 Cycles): <0.005% w/v | Minimum Biofilm Eradication Concentration (MBEC) 5 Cycles ([5]; 5 Cycles): <0.005% w/v | Log Reduction Pseudomonas aeruginosa ATCC 27853 1 Cycle [6, 12]: −0.16 | Log Reduction Pseudomonas aeruginosa ATCC 27853 3 Cycles [6, 12]: 5.87 | Log Reduction Pseudomonas aeruginosa ATCC 27853 5 Cycles [6, 12]: 5.83 | Log Reduction Pseudomonas aeruginosa ATCC 27853 1 Cycle [6, 13]: −0.98 | Log Reduction Pseudomonas aeruginosa ATCC 27853 3 Cycles [6, 13]: 5.87 | Log Reduction Pseudomonas aeruginosa ATCC 27853 5 Cycles [6, 13]: 5.83 | Log Reduction Pseudomonas aeruginosa ATCC 27853 1 Cycle [6, 14]: −0.48 | Log Reduction Pseudomonas aeruginosa ATCC 27853 3 Cycles [6, 14]: 3.92 | Log Reduction Pseudomonas aeruginosa ATCC 27853 5 Cycles [6, 14]: 5.83 | Log Reduction Pseudomonas aeruginosa ATCC 27853 1 Cycle [6, 15]: −1.11 | Log Reduction Pseudomonas aeruginosa ATCC 27853 3 Cycles [6, 15]: 1.26 | Log Reduction Pseudomonas aeruginosa ATCC 27853 5 Cycles [6, 15]: 5.39 | ΔLog - C. alb. 30 sec. (C. alb. [7]; 0.8 mM HOCl/OCl−): 2.87 | ΔLog - C. alb. 5 min. (C. alb. [7]; 0.8 mM HOCl/OCl−): >7.18 | ΔLog - C. alb. 30 sec. (C. alb. [7]; 1.9 mM HOCl/OCl−): 2.94 | ΔLog - C. alb. 5 min. (C. alb. [7]; 1.9 mM HOCl/OCl−): 3.77 | ΔLog - C. alb. 30 sec. (C. alb. [7]; 3.1 mM HOCl/OCl−): 3.08 | ΔLog - C. alb. 5 min. (C. alb. [7]; 3.1 mM HOCl/OCl−): >7.18 | ΔLog - C. alb. 30 sec. (C. alb. [7]; 4.0 mM HOCl/OCl−): 3.94 | ΔLog - C. alb. 5 min. (C. alb. [7]; 4.0 mM HOCl/OCl−): >7.18 | ΔLog - C. alb. 30 sec. (C. alb. [7]; 10.7 mM HOCl/OCl−): 7.18 | ΔLog - C. alb. 5 min. (C. alb. [7]; 10.7 mM HOCl/OCl−): >7.18 | ΔLog - C. alb. 30 sec. (C. alb. [7]; 15.7 mM HOCl/OCl−): 3.50 | ΔLog - C. alb. 5 min. (C. alb. [7]; 15.7 mM HOCl/OCl−): >7.18 | lowest concentrations identified to have effective antibacterial and antimicrobial properties (microbes): 0.5 to 0.7 mM | killing of microbes in Log reduction experimentation (microbes; five (5) cycles at the lowest concentration (0.7 mM), 30 seconds per cycle): killed substantially all microbes present | Minimum Inhibitory Concentration (MIC) 1 Cycle ([8]; 1 Cycle): <0.005% w/v | Minimum Inhibitory Concentration (MIC) 3 Cycles ([8]; 3 Cycles): <0.005% w/v | Minimum Inhibitory Concentration (MIC) 5 Cycles ([8]; 5 Cycles): <0.005% w/v | ZOI, D in mm C. alb. (C. alb. [9]; 0.8 mM HOCl/OCl−): 15.0 mm | ZOI, D in mm C. alb. (C. alb. [9]; 1.9 mM HOCl/OCl−): 24.3 mm | ZOI, D in mm C. alb. (C. alb. [9]; 3.1 mM HOCl/OCl−): 22.0 mm | ZOI, D in mm C. alb. (C. alb. [9]; 4.0 mM HOCl/OCl−): 34.3 mm | ZOI, D in mm C. alb. (C. alb. [9]; 10.7 mM HOCl/OCl−): 45.7 mm | ZOI, D in mm C. alb. (C. alb. [9]; 15.7 mM HOCl/OCl−): 44.3 mm | Minimum Biofilm Eradication Concentration (MBEC) 1 Cycle ([10]; 1 Cycle): >0.041% w/v | Minimum Biofilm Eradication Concentration (MBEC) 3 Cycles ([10]; 3 Cycles): 0.021% w/v | Minimum Biofilm Eradication Concentration (MBEC) 5 Cycles ([10]; 5 Cycles): 0.041% w/v | Minimum Inhibitory Concentration (MIC) 1 Cycle ([11]; 1 Cycle): <0.005% w/v | Minimum Inhibitory Concentration (MIC) 3 Cycles ([11]; 3 Cycles): <0.005% w/v | Minimum Inhibitory Concentration (MIC) 5 Cycles ([11]; 5 Cycles): <0.005% w/v
